“And” between values parts separate entries of the source, which are not always exact repeats. Identical values can stand only once.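 Briefly, cells in 96-well plates were exposed to five compound concentrations for 48 h, and endpoints were estimated by linear interpolation. The concentration for 50% growth inhibition is given as GI50. The concentration for full growth arrest is given as TGI.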
Legend:
Assay in all cases: NCI tumour cell line growth inhibition, 48 h
ACHN renal = tested on: ACHN renal
MALME-3M melanoma = tested on: MALME-3M melanoma
SF-539 CNS = tested on: SF-539 CNS
SK-MEL-2 melanoma = tested on: SK-MEL-2 melanoma
SK-OV-3 ovarian = tested on: SK-OV-3 ovarian
SW-620 colon = tested on: SW-620 colon
UACC-62 melanoma = tested on: UACC-62 melanoma
UO-31 renal = tested on: UO-31 renal
HOP-92 NSCLC = tested on: HOP-92 NSCLC
LOX IMVI melanoma = tested on: LOX IMVI melanoma

Row | SMILES | GI50 (ACHN renal) [nM] | TGI (ACHN renal) [µM] | GI50 (MALME-3M melanoma) [nM] | TGI (MALME-3M melanoma) [µM] | GI50 (SF-539 CNS) [nM] | TGI (SF-539 CNS) | GI50 (SK-MEL-2 melanoma) [nM] | TGI (SK-MEL-2 melanoma) [µM] | GI50 (SK-OV-3 ovarian) [nM] | TGI (SK-OV-3 ovarian) | GI50 (SW-620 colon) [nM] | TGI (SW-620 colon) [µM] | GI50 (UACC-62 melanoma) [nM] | TGI (UACC-62 melanoma) [µM] | GI50 (UO-31 renal) [nM] | TGI (UO-31 renal) [µM] | GI50 (HOP-92 NSCLC) [nM] | TGI (HOP-92 NSCLC) [µM] | GI50 (LOX IMVI melanoma) [nM] | TGI (LOX IMVI melanoma) [µM]
1 | O=c1c2ccccc2c(=O)c2c1sc1c(=O)c3ccc(O)cc3c(=O)c12 | 864 | 2.38 | 152 | 0.318 | 245 | 0.661 µM | 1470 | 3.88 | 1380 | 2.91 µM | 436 | 1.56 | 174 | 0.331 | 644 | 2.82 |  |  |  | 
2 | CC1(C)Oc2ccccc2N2O[C@@H]3C(=O)N(c4ccccc4)C(=O)[C@@H]3C21c1ccccc1 (stereo partly specified) |  |  |  | 42.5 |  | 31.7 µM |  | 53.3 |  | 41 µM |  | > 100 |  | 87.8 |  | > 100 |  |  |  | 
3 | Cc1cc([C@H](C)Nc2nccc(N3C(=O)OC[C@@H]3[C@H](C)F)n2)ncc1-c1ccnc(C(F)(F)F)c1 | 24700 | > 100 | 24200 | > 100 | 61300 | > 100 µM | 40200 | > 100 |  |  | 46600 | > 100 | 21700 | > 100 | 6080 | > 100 | 14900 | > 100 | 36500 | > 100
4 | O=C(O)C(O)c1ccc(F)cc1 (stereo unspecified) |  | > 100 |  | > 100 |  |  |  | > 100 |  | > 100 µM |  | > 100 |  | > 100 |  | > 100 |  | > 100 |  | > 100
5 | CN1CCN(CCCOc2ccc3ncnc(Nc4ccc(Oc5cccc(F)c5)c(Cl)c4)c3c2)CC1 | 1020 | 2.19 | 1560 | 3.05 | 1540 | 2.93 µM | 1950 | 4.04 |  |  | 1680 | 3.25 | 1750 | 3.27 | 1110 | 2.3 | 907 | 2.26 | 1700 | 3.1
6 | CCOC(=O)c1cc(C(=O)O)c(=O)n2c1[nH]c1ccccc12 |  | > 100 |  | > 100 |  | > 100 µM |  | > 100 |  | > 100 µM |  | > 100 |  | > 100 |  | 87.7 |  |  |  | 
7 | Cc1cc(C)c2nccc(NCCCN(C)C)c2c1[N+](=O)[O-] |  | > 100 |  | 36.4 |  | 84.8 µM |  | 58.8 |  | > 100 µM |  | > 100 |  | > 100 |  | 42.8 |  |  |  | 51.9
8 | Cc1cc(S(N)(=O)=O)c(S/C(=N\NS(=O)(=O)c2ccccc2)c2ccc(Cl)c(Cl)c2)cc1Cl | 30000 | 92.7 |  |  | 19300 | 64.3 µM | > 100000 | > 100 | > 100000 | > 100 µM | 37300 | > 100 | 34700 | > 100 | 54500 | > 100 | 93400 | > 100 | 36100 | > 100
9 | COc1cc2c(c(OC)c1OC)-c1ccc(SC)c(=O)cc1[C@@H](NC(=O)c1ccc(F)cc1)CC2 | < 10 | 91.3 | < 10 | 91.1 | < 10 | 0.0696 µM and < 0.01 µM |  |  | < 10 | 0.072 µM and < 0.01 µM | < 10 | > 100 | < 10 | 27.6 |  | 46.6 |  | 0.0958 |  | 
10 | COc1ccccc1-c1nccc(COc2ccccc2C[C@@H](Oc2ncnc3sc(-c4ccc(F)cc4)c(-c4ccc(OCCN5CCN(C)CC5)c(Cl)c4C)c23)C(=O)O)n1 | 5070 | 15.3 | 1630 | 3.37 | 1210 | 2.59 µM | < 11.4 | 0.0367 | 4040 | 16.5 µM | 2340 | 6.88 | 76.1 | 1.41 | 6120 | 17.5 | 1410 | 3.27 |  | 
11 | COc1ccc(-c2nc(/C=N/Nc3cc(C)nc4ccc(Br)cc34)c(C)o2)cc1 | 1730 | 3.11 | 1980 | 3.67 | 1830 | 3.3 µM | 1990 | 3.9 | 1700 | 3.12 µM | 415 | 1.56 | 1760 | 3.34 | 1520 | 2.89 | 1450 | 3.06 |  | 
12 | C/C(=N\O)[C@H]1CC[C@@]2(C)[C@@H]3CC[C@H]4C(C)(C)/C(=N/O)CC[C@@]45CC35CC[C@]12C (stereo partly specified) | 2510 | 4.97 |  |  | 3140 | 6.72 µM | 13400 | > 16.7 | 6180 | > 16.7 µM | 8680 | > 16.7 | 5440 | > 16.7 |  |  | 2090 | 5.45 | 759 | 4.1
13 | Cc1cc(C(=O)Nc2cc(Nc3ncccc3-c3ncnc4nc[nH]c34)ccc2F)cc(C(C)(C)C#N)c1 | 1220 | > 100 |  |  | 1190 | > 63.8 µM | 86.6 | 2.04 | 26000 | > 100 µM | 649 | > 100 |  |  | 239 | > 100 | 145 | 1.45 | 41.4 | 0.338
14 | O=C1Nc2ccc(Br)cc2C1=Nc1ccc(Cl)cc1 |  | 39.1 |  | 48.5 |  | 19.4 µM |  |  |  | > 100 µM |  | 32.5 |  | 12.6 |  | 28.9 |  | > 100 |  | 31.8
15 | CC(=O)Oc1ccc2c(c1)O/C(=C\c1ccc(O)cc1)C2=O |  | > 100 |  |  |  | > 100 µM |  |  |  | > 100 µM |  | > 100 |  | > 100 |  | > 100 |  |  |  | 
16 | N#CC1=C(N)Oc2c(sc3c(Br)cccc23)C1c1ccc(F)cc1 (stereo unspecified) | 682 | 17 |  |  |  |  | 487 | 31.1 | 471 | 18.6 µM | 476 | 34.6 | 512 | 23.5 | 515 | 20.1 | 11500 | 32.2 | 695 | 15.2

Source: PubChem BioAssay (NCI)
